Results on eleven compounds are retold here after paper PMC12608647, “Synthesis and Activity Evaluation of Novel Benzoxazepinone Derivatives as Potential Inhibitors of Glycogen Phosphorylase” (Molecules, 2025).

Test [1] deals with HL-7702 cells. Put plainly: Glycogenolysis inhibition assay in HL-7702 cells. Particulars: for IC50: Homo sapiens, L02, 1 h, HL-7702 cells, 0.3 nM glucagon, 60 min, mean ± SD of three determinations. Format: cell-based, human. The procedure: To evaluate the effects of the synthesized compounds on glycogen degradation, compounds 8a–8i were subjected to a glycogenolysis assay in HL-7702 cells.
The inhibitory effect on hepatic glycogenolysis was quantitatively assessed by colorimetry using a microplate reader (Bio-Rad Laboratories) and anthrone reagent (Sigma-Aldrich, St. Louis, MO, USA), as previously described. Primary human liver HL-7702 cells (National Collection of Authenticated Cell Cultures) were treated with test compounds or DMSO solvent (final concentration, 0.10%) and then co-incubated with 0.3 nM glucagon for 60 min. After termination of the reaction by centrifugation, the cells were digested with 30% potassium hydroxide, and the glycogen content was determined. When culturing cells to concentration, a 6-well plate is used for cell culture, with a cell seeding density of 10^6 cells per well. The condition is set at a constant temperature of 37 degrees Celsius. The repetition count is three times. The activity assessment criteria were based on the positive drug psn-357 and the parent nuclear compound 5d. IC50 values were estimated by fitting the inhibition data to a logistic regression equation to generate dose–response curves. Analysis was conducted using SPSS Statistics 17.0. In vitro data are presented as mean ± SD, and in vivo data as mean ± SEM. Differences between two groups were assessed using Student’s t-test, and comparisons among three or more groups using ANOVA. A p-value < 0.05 was considered significant.

In test [2] the target is T1, rabbit muscle glycogen phosphorylase a (RMGPa) (Oryctolagus cuniculus, UniProt P00489).
T1 sequence (P00489 2-843 limits assumed): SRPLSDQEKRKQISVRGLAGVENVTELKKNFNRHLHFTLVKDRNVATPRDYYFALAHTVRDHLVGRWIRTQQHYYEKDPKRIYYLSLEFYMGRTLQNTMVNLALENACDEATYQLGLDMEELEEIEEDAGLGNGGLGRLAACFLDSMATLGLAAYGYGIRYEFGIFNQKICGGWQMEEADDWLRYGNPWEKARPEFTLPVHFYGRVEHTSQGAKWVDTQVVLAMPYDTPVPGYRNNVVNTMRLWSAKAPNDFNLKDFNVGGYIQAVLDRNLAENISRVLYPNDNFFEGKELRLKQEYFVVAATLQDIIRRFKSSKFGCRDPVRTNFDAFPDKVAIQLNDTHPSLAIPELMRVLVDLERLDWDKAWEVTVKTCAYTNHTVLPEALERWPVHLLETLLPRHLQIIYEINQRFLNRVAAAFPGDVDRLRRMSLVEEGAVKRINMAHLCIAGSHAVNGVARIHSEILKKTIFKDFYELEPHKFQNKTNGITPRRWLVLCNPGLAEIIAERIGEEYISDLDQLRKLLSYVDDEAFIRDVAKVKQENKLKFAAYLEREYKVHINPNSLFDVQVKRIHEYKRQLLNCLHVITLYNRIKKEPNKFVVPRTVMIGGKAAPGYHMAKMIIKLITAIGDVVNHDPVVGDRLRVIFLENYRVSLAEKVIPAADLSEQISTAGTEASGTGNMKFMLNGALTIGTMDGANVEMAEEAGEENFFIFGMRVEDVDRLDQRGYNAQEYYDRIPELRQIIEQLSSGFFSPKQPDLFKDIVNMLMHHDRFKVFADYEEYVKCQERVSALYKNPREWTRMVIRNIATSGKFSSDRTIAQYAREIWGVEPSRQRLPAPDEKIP
Briefly: RMGPa inhibition assay (phosphate release from glucose-1-phosphate). To be noted: for IC50: mean ± SD of three determinations. Format: biochemical. The method, then:
The synthesized compounds were evaluated for their inhibitory activity against rabbit muscle glycogen phosphorylase a (RMGPa) according to a previously reported protocol. PSN-357, a compound in phase II clinical trials, was used as a positive control. We also used the parent structure 5d as a positive control (Figure 2).
The inhibitory activity of the test compounds against RMGPa was evaluated using a microplate reader (Bio-Rad Laboratories, Berkeley, CA, USA) according to a previously described method. Briefly, RMGPa activity was determined by measuring the release of phosphate from glucose-1-phosphate, which reflects the direction of glycogen synthesis. Each test compound was dissolved in DMSO and diluted to different concentrations for IC50 determination. The enzyme was added to 100 μL reaction mixtures in 96-well Costar microplates (Corning Inc., Corning, NY, USA) containing 50 mM HEPES (pH 7.2), 100 mM potassium chloride (KCl), 2.5 mM magnesium chloride (MgCl2), 0.5 mM glucose-1-phosphate, 1 mg/mL glycogen, and the test compounds. After incubation at 22 °C for 25 min, 150 μL of a solution containing 10 mg/mL ammonium molybdate and 0.38 mg/mL malachite green was added. The absorbance of phosphate was measured at 620 nm. IC50 values were estimated by fitting the inhibition data to a dose–response curve using a logistic regression equation.

The structures appear in SMILES notation. “Also recorded” adds a separate entry of the source.

Turning to `CCCCOC1COc2ccc(NC(=O)c3cc4cc(Cl)ccc4[nH]3)cc2C(=O)N1` (centres unmarked) [Compound 8d, N-(3-butoxy-5-oxo-2,3,4,5-tetrahydrobenzo[f][1,4]oxazepin-7-yl)-5-chloro-1H-indole-2-carboxamide], the IC50 (as a rule, the midpoint of a concentration-inhibition curve) in test [1] worked out at 9.81 ± 1.39 µM; in test [2] it was 0.71 ± 0.25 µM.

With `O=C(Nc1ccc2c(c1)C(=O)NC(OCc1ccccc1)CO2)c1cc2cc(Cl)ccc2[nH]1` (centres unmarked) [Compound 8g, N-(3-(benzyloxy)-5-oxo-2,3,4,5-tetrahydrobenzo[f][1,4]oxazepin-7-yl)-5-chloro-1H-indole-2-carboxamide], the half-maximal inhibitory concentration (IC50) in test [1] was 1.51 ± 0.21 µM; in test [2], 0.62 ± 0.16 µM. The “potency relative to parent structure 5d in HL-7702 cells” value in test [1] (versus 5d) is listed as “twice”. In test [1] (versus PSN-357), the “potency relative to PSN-357 in HL-7702 cells (inhibition of glycogen degradation)” value was “threefold increase; also recorded: three times greater”.

As to `O=C(N[C@@H](Cc1ccc(F)cc1)C(=O)N1CCC(O)CC1)c1cc2cc(Cl)ncc2[nH]1` [PSN-357, reference compound], half-maximal inhibition in test [1] (IC50) required 4.94 ± 0.28 µM.

`CCOC1COc2ccc(NC(=O)c3cc4cc(Cl)ccc4[nH]3)cc2C(=O)N1` (centres unmarked) [Compound 8b, 5-chloro-N-(3-ethoxy-5-oxo-2,3,4,5-tetrahydrobenzo[f][1,4]oxazepin-7-yl)-1H-indole-2-carboxamide]: the figures for the IC50 in test [1] and in test [2] were 6.77 ± 0.93 µM and 1.61 ± 0.41 µM, respectively.

For the compound `COCCOC1COc2ccc(NC(=O)c3cc4cc(Cl)ccc4[nH]3)cc2C(=O)N1` (centres unmarked) [Compound 8i, 5-chloro-N-[3-(2-methoxyethoxy)-5-oxo-2,3,4,5-tetrahydrobenzo[f][1,4]oxazepin-7-yl]-1H-indole-2-carboxamide], the half-inhibitory concentration (IC50) in test [1] is more than 15.4 µM; in test [2], 5.31 ± 0.62 µM.

Consider `CCCCCCOC1COc2ccc(NC(=O)c3cc4cc(Cl)ccc4[nH]3)cc2C(=O)N1` (centres unmarked) [Compound 8f, 5-chloro-N-(3-(hexyloxy)-5-oxo-2,3,4,5-tetrahydrobenzo[f][1,4]oxazepin-7-yl)-1H-indole-2-carboxamide], for which the half-inhibitory concentration (IC50) amounted to 7.67 ± 1.98 µM in test [1] and 0.29 ± 0.1 µM in test [2].

As for `CCCOC1COc2ccc(NC(=O)c3cc4cc(Cl)ccc4[nH]3)cc2C(=O)N1` (centres unmarked) [Compound 8c, 5-chloro-N-(5-oxo-3-propoxy-2,3,4,5-tetrahydrobenzo[f][1,4]oxazepin-7-yl)-1H-indole-2-carboxamide], the IC50 in test [1] stood at 5.33 ± 1.39 µM.

On to `O=C(Nc1ccc2c(c1)C(=O)NCCO2)c1cc2cc(Cl)ccc2[nH]1` [Compound 5d, reference compound], for which the IC50 is 3.75 ± 2.67 µM in test [1] and 0.25 ± 0.05 µM in test [2].

For the compound `COC1COc2ccc(NC(=O)c3cc4cc(Cl)ccc4[nH]3)cc2C(=O)N1` (centres unmarked) [Compound 8a, 5-chloro-N-(3-methoxy-5-oxo-2,3,4,5-tetrahydrobenzo[f][1,4]oxazepin-7-yl)-1H-indole-2-carboxamide], the half-inhibitory concentration (IC50) in test [1] was 8.51 ± 3.99 µM; in test [2] it was 0.21 ± 0.05 µM. For the same compound, the “RMGPa inhibitory activity relative to PSN-357” value in test [2] (versus PSN-357) is “twice as strong”.

Take `CCCCCOC1COc2ccc(NC(=O)c3cc4cc(Cl)ccc4[nH]3)cc2C(=O)N1` (centres unmarked) [Compound 8e, 5-chloro-N-(5-oxo-3-(pentyloxy)-2,3,4,5-tetrahydrobenzo[f][1,4]oxazepin-7-yl)-1H-indole-2-carboxamide]: the IC50 was determined as 15.4 ± 0.89 µM in test [1] and 0.88 ± 0.03 µM in test [2].

For the compound `CC(C)CCOC1COc2ccc(NC(=O)c3cc4cc(Cl)ccc4[nH]3)cc2C(=O)N1` (centres unmarked) [Compound 8h, 5-chloro-N-(3-(isopentyloxy)-5-oxo-2,3,4,5-tetrahydrobenzo[f][1,4]oxazepin-7-yl)-1H-indole-2-carboxamide], the IC50 in test [1] stood at 6.99 ± 0.99 µM; in test [2], 0.7 ± 0.55 µM.
